Measured values published in US12319664B2, “Herbicidally active 3-phenylisoxazoline-5-carboxamides of cyclopentenylcarboxylic acid derivatives” (Bayer Aktiengesellschaft, priority 2018, dated 2025).

Columns and labels:
STEME [1] = experiment: Pre-emergence herbicidal action against STEME; assay type: in vivo, Stellaria media; conditions: application rate 80 g/ha
Source text: (§1) 1. Pre-emergence herbicidal action against harmful plants and crop plant compatibility Seeds of monocotyledonous and dicotyledonous weed plants and crop plants are placed in plastic or wood-fibre pots and covered with soil. The compounds of the invention, formulated in the form of wettable powders (WP) or as emulsion concentrates (EC), are then applied onto the surface of the covering soil as aqueous suspension or emulsion with addition of 0.5% additive at a water application rate of 600 l/ha (converted). After the treatment, the pots are placed in a greenhouse and kept under good growth conditions for the trial plants. After about 3 weeks, the effect of the preparations is scored visually in comparison with untreated controls as percentages. For example, 100% activity=the plants have died, 0% activity=like control plants. [table]

ALOMY [2] = experiment: Pre-emergence herbicidal action against ALOMY; assay type: in vivo, Alopecurus myosuroides; conditions: application rate 80 g/ha, scored visually after about 3 weeks vs untreated controls (100% = plants have died, 0% = like control plants)
Source text: as §1

AVEFA [3] = experiment: Pre-emergence herbicidal action against AVEFA; assay type: in vivo, Avena fatua; conditions: application rate 80 g/ha, scored visually after about 3 weeks vs untreated controls (100% = plants have died, 0% = like control plants)
Source text: as §1

LOLRI [4] = experiment: Pre-emergence herbicidal action against LOLRI; assay type: in vivo, Lolium rigidum; conditions: application rate 80 g/ha, scored visually after about 3 weeks vs untreated controls (100% = plants have died, 0% = like control plants)
Source text: as §1

SETVI [5] = experiment: Pre-emergence herbicidal action against SETVI; assay type: in vivo, Setaria viridis; conditions: application rate 80 g/ha, scored visually after about 3 weeks vs untreated controls (100% = plants have died, 0% = like control plants)
Source text: as §1

AMARE [6] = experiment: Pre-emergence herbicidal action against AMARE; assay type: in vivo, Amaranthus retroflexus; conditions: application rate 80 g/ha
Source text: as §1

POLCO [7] = experiment: Pre-emergence herbicidal action against POLCO; assay type: in vivo, Polygonum convolvulus; conditions: application rate 80 g/ha
Source text: as §1

HORMU [8] = experiment: Pre-emergence herbicidal action against HORMU; assay type: in vivo, Hordeum murinum; conditions: application rate 80 g/ha
Source text: as §1

LOLRI [9] = experiment: Post-emergence herbicidal action against LOLRI; assay type: in vivo, Lolium rigidum; conditions: application rate 80 g/ha, rated visually after about 3 weeks
Outline: (§2)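 Test plants grown from seed in greenhouse pots of sandy loam were treated post-emergence at the one-leaf stage. Damage, from 0% (like controls) to 100% (plants died), was assessed visually about 3 weeks later.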

ECHCG [10] = experiment: Pre-emergence herbicidal action against ECHCG; assay type: in vivo, Echinochloa crus-galli; conditions: application rate 80 g/ha, scored visually after about 3 weeks vs untreated controls (100% = plants have died, 0% = like control plants)
Source text: as §1

ALOMY [11] = experiment: Post-emergence herbicidal action against ALOMY; assay type: in vivo, Alopecurus myosuroides; conditions: application rate 80 g/ha, rated visually after about 3 weeks
Outline: as §2

AVEFA [12] = experiment: Post-emergence herbicidal action against AVEFA; assay type: in vivo, Avena fatua; conditions: application rate 80 g/ha, rated visually after about 3 weeks
Outline: as §2

ECHCG [13] = experiment: Post-emergence herbicidal action against ECHCG; assay type: in vivo, Echinochloa crus-galli; conditions: application rate 80 g/ha, rated visually after about 3 weeks
Outline: as §2

SETVI [14] = experiment: Post-emergence herbicidal action against SETVI; assay type: in vivo, Setaria viridis; conditions: application rate 80 g/ha, rated visually after about 3 weeks
Outline: as §2

AMARE [15] = experiment: Post-emergence herbicidal action against AMARE; assay type: in vivo, Amaranthus retroflexus; conditions: application rate 80 g/ha, rated visually about 3 weeks after treatment
Outline: as §2

POLCO [16] = experiment: Post-emergence herbicidal action against POLCO; assay type: in vivo, Polygonum convolvulus; conditions: application rate 80 g/ha, rated visually about 3 weeks after treatment
Outline: as §2

STEME [17] = experiment: Post-emergence herbicidal action against STEME; assay type: in vivo, Stellaria media; conditions: application rate 80 g/ha, rated visually about 3 weeks after treatment
Outline: as §2

VIOTR [18] = experiment: Post-emergence herbicidal action against VIOTR; assay type: in vivo, Viola tricolor; conditions: application rate 80 g/ha, rated visually about 3 weeks after treatment
Outline: as §2

HORMU [19] = experiment: Post-emergence herbicidal action against HORMU; assay type: in vivo, Hordeum murinum; conditions: application rate 80 g/ha
Outline: as §2

VIOTR [20] = experiment: Pre-emergence herbicidal action against VIOTR; assay type: in vivo, Viola tricolor; conditions: application rate 80 g/ha
Source text: as §1

ABUTH = experiment: Post-emergence herbicidal action against ABUTH; assay type: in vivo, Abutilon theophrasti; conditions: application rate 80 g/ha, rated visually about 3 weeks after treatment
Outline: as §2

MATIN = experiment: Post-emergence herbicidal action against MATIN; assay type: in vivo, Matricaria inodora; conditions: application rate 80 g/ha, rated visually about 3 weeks after treatment
Outline: as §2

PHBPU = experiment: Post-emergence herbicidal action against PHBPU; assay type: in vivo, Pharbitis purpurea; conditions: application rate 80 g/ha, rated visually about 3 weeks after treatment
Outline: as §2

VERPE = experiment: Post-emergence herbicidal action against VERPE; assay type: in vivo, Veronica persica; conditions: application rate 80 g/ha
Outline: as §2

CC1(C(=O)NC2C=CC(C(=O)NS(C)(=O)=O)C2)CC(c2cccc(F)c2)=NO1 (mixture of isomers) [II-13]
Herbicidal action against [%] STEME (STEME [1]): 100%

CN(C)C(=O)C1=CCC(NC(=O)C2(C)CC(c3cccc(F)c3)=NO2)C1 (mixture of isomers) [IV-01]
Herbicidal action against [%] ALOMY (ALOMY [2]): 90% | Herbicidal action against [%] AVEFA (AVEFA [3]): 90% | Herbicidal action against [%] LOLRI (LOLRI [4]): 100% | Herbicidal action against [%] SETVI (SETVI [5]): 90% | Herbicidal action against [%] AMARE (AMARE [6]): 90% | Herbicidal action against [%] POLCO (POLCO [7]): 90% | Herbicidal action against [%] STEME (STEME [1]): 90% | Herbicidal action against [%] HORMU (HORMU [8]): 90%

CONC(=O)C1=CC[C@@H](NC(=O)C2(C)CC(c3cccc(F)c3)=NO2)C1 (mixture of isomers) [IV-03, (5SR)-3-(3-Fluorophenyl)-N-[(1R)-3-[(methoxyamino)carbonyl]cyclopent-3-en-1-yl]-5-methyl-4H-1,2-oxazole-5-carboxamide]
Herbicidal action against [%] ALOMY (ALOMY [2]): 90% | Herbicidal action against [%] LOLRI (LOLRI [9]): 90%

CONC(=O)C1=CCC(NC(=O)C2(C)CC(c3cccc(F)c3)=NO2)C1 (mixture of isomers) [IV-04]
Herbicidal action against [%] ALOMY (ALOMY [2]): 90% | Herbicidal action against [%] AVEFA (AVEFA [3]): 90% | Herbicidal action against [%] ECHCG (ECHCG [10]): 90% | Herbicidal action against [%] LOLRI (LOLRI [4]): 100% | Herbicidal action against [%] SETVI (SETVI [5]): 100% | Herbicidal action against [%] AMARE (AMARE [6]): 90% | Herbicidal action against [%] STEME (STEME [1]): 90% | Herbicidal action against [%] HORMU (HORMU [8]): 90% | Herbicidal action against [%] ALOMY (ALOMY [11]): 90% | Herbicidal action against [%] AVEFA (AVEFA [12]): 90% | Herbicidal action against [%] ECHCG (ECHCG [13]): 80% | Herbicidal action against [%] LOLRI (LOLRI [9]): 90% | Herbicidal action against [%] SETVI (SETVI [14]): 80% | Herbicidal action against [%] AMARE (AMARE [15]): 80% | Herbicidal action against [%] POLCO (POLCO [16]): 80% | Herbicidal action against [%] STEME (STEME [17]): 80% | Herbicidal action against [%] VIOTR (VIOTR [18]): 80% | Herbicidal action against [%] HORMU (HORMU [19]): 90%

CN(C)NC(=O)C1=CCC(NC(=O)C2(C)CC(c3cccc(F)c3)=NO2)C1 (mixture of isomers) [IV-05]
Herbicidal action against [%] ALOMY (ALOMY [2]): 80% | Herbicidal action against [%] AVEFA (AVEFA [3]): 80% | Herbicidal action against [%] STEME (STEME [1]): 90% | Herbicidal action against [%] VIOTR (VIOTR [20]): 100%

CCOC(=O)[C@H]1C=C[C@@H](NC(=O)C2(C)CC(c3cccc(F)c3)=NO2)C1 (some centres unmarked) [Example I-005]
Herbicidal action against [%] AMARE (AMARE [6]): 80%

O=C(O)C1C=CC(NC(=O)C2(C3CC3)CC(c3cc(F)cc(F)c3)=NO2)C1 (centres unmarked) [Example I-094]
Herbicidal action against [%] ALOMY (ALOMY [11]): 100% | Herbicidal action against [%] AVEFA (AVEFA [12]): 90% | Herbicidal action against [%] ECHCG (ECHCG [13]): 90% | Herbicidal action against [%] LOLRI (LOLRI [9]): 90% | Herbicidal action against [%] SETVI (SETVI [14]): 80% | Herbicidal action against [%] ABUTH (ABUTH): 90% | Herbicidal action against [%] AMARE (AMARE [15]): 90% | Herbicidal action against [%] MATIN (MATIN): 80% | Herbicidal action against [%] PHBPU (PHBPU): 90% | Herbicidal action against [%] POLCO (POLCO [16]): 90% | Herbicidal action against [%] STEME (STEME [17]): 90% | Herbicidal action against [%] VIOTR (VIOTR [18]): 90% | Herbicidal action against [%] VERPE (VERPE): 90% | Herbicidal action against [%] HORMU (HORMU [19]): 90%

CCONC(=O)[C@H]1C=C[C@@H](NC(=O)C2(C)CC(c3cccc(F)c3)=NO2)C1 (some centres unmarked) [II-03]
Herbicidal action against [%] VIOTR (VIOTR [20]): 90%

CC(C)ONC(=O)[C@H]1C=C[C@@H](NC(=O)C2(C)CC(c3cccc(F)c3)=NO2)C1 (some centres unmarked) [II-05]
Herbicidal action against [%] STEME (STEME [1]): 90%

CCOC(=O)C1=CC[C@@H](NC(=O)C2(C)CC(c3cccc(F)c3)=NO2)C1 (some centres unmarked) [III-05]
Herbicidal action against [%] HORMU (HORMU [8]): 80% | Herbicidal action against [%] LOLRI (LOLRI [9]): 80% | Herbicidal action against [%] HORMU (HORMU [19]): 90%
